What was measured:
Type in all cases: cell-based
[1] = test system: human CD4+ and CD8+ T cells; experiment: RNA expression analysis (Luminex Quantigene) after 3-day de-differentiation culture; conditions: relative to control Th1/Tc1 culture, temsirolimus 1 µM
Method: At the end of the de-differentiation interval, cells were harvested, RNA was isolated, and RNA expression analysis was performed by Luminex Quantigene method. All results shown represent relative RNA expression, with results normalized to a value of 1.0 for the Th1/Tc1 control culture.

[2] = test system: human CD4+ and CD8+ T cells; experiment: Western blot for autophagy-related molecule p62 after 3-day de-differentiation culture; conditions: 3-day culture, 1:3 bead-to-T cell ratio; temsirolimus 1.0 or 0.3 µM, Vitamin D 0.01-1.0 nM, Daclizumab 50 µg/ml
Text: After the 3-day culture interval, the T cells were harvested, and protein was isolated and subjected to western blot analysis for the autophagy-related gene, p62, and the housekeeping gene, Actin.

[3] = test system: human CD4+ and CD8+ T cells; experiment: Western blot for mTORC1 complex protein Raptor after 3-day de-differentiation culture
Text: After the 3-day culture interval, the T cells were harvested, and protein was isolated and subjected to western blot analysis for the mTORC1 complex protein, Raptor, and the housekeeping gene, Actin.

[4] = test system: human CD4+ and CD8+ T cells; experiment: T cell yield at day 13 after de-differentiation interval and re-stimulation without inhibitors; conditions: columns #5 and #6; Vitamin D reduced to 0.01 nM or increased to 1.0 nM
Method: After 10 days (13 days of total culture), the T cells were harvested, enumerated, and evaluated by flow cytometry. FIG. 8 illustrates the effect of culture components during the de-differentiation interval on subsequent T cell yield (at day 13 of culture). […] After the 3-day interval, media was exchanged to fresh X-Vivo 20 without inhibitors, high-level co-stimulation was provided (3:1 bead-to-T cell ratio), and the T cell growth cytokines IL-2 (100 IU/ml) and IL-7 (10 ng/ml) were added. At day 13 of culture, viable T cells were enumerated and the overall yield is shown relative to day 0 input number.

[5] = test system: human CD4+ and CD8+ T cells; experiment: Luminex cytokine analysis of de-differentiated T cells cultured in polarization-neutral media; conditions: Vitamin D concentration during the de-differentiation interval
Method: FIGS. 11A-11D depict the inflammatory Th1/Th17 cytokine analysis of cultured de-differentiated T cells in polarization-neutral media. […] After 3-days, the de-differentiated T cells were co-stimulated (typical bead-to-T cell ratio of 3:1) in media supplemented with the T cell growth cytokines rhu IL-2 (100 IU/ml) and rhu IL-7 (10 ng/ml), which are not potent in terms of inducing T cell polarization. After 10 days in culture (total, day 13 of culture), the T cells were harvested, washed, and re-stimulated with 3/28 beads (3:1 ratio) for 24 hr; the resultant supernatant was harvested and tested for cytokine content by Luminex multi-analyte method. All results shown are expressed as cytokine level in pg per ml per 1 × 10^6 cells/ml/24 hr.
FIGS. 12A-12D depicts the IL-2 and Th2-type cytokine analysis of cultured de-differentiated T cells in polarization-neutral media. […] After 3-days, the de-differentiated T cells were co-stimulated (typical bead-to-T cell ratio of 3:1) in media supplemented with the T cell growth cytokines rhu IL-2 (100 IU/ml) and rhu IL-7 (10 ng/ml), which are not potent in terms of inducing T cell polarization. […] All results shown are expressed as cytokine level in pg per ml per 1 × 10^6 cells/ml/24 hr.

[6] = test system: human CD4+ and CD8+ T cells; experiment: Western blot for Raptor, Rictor, p70S6K, SGK1 after 3-day de-differentiation culture; conditions: relative to control culture without the three inhibitors; temsirolimus 1 µM, Vitamin D 0.03-1.0 nM, Daclizumab 50 µg/ml
Text: After the 3-day culture interval, the T cells were harvested, and protein was isolated and subjected to western blot analysis for the mTORC1 complex protein, Raptor; the mTORC2 complex protein, Rictor; the post-mTORC1 protein p70S6K; the post-mTORC2 protein, SGK1; and the housekeeping gene, GAPDH.

[7] = 3-day culture, bead-to-T cell ratio 1:3, Vitamin D 0.1 or 1.0 nM

## C=C1/C(=C\C=C2/CCC[C@]3(C)[C@@H]([C@H](C)CCCC(C)(C)O)CC[C@@H]23)C[C@@H](O)C[C@@H]1O [Vitamin D, 1,25-vitamin D]
[1]; [7]
  Granzyme B RNA expression: reduction
  IFN-gamma RNA expression: reduction
  IL-10 RNA expression: reduction
[1]; Vitamin D 1.0 nM
  IL-7 receptor alpha RNA expression: not Vitamin D alone
  KLF4 RNA expression: neither temsirolimus nor Vitamin D alone increased
  KLF10 RNA expression: does not act alone to up-regulate
[1]; Vitamin D 0.1 to 1.0 nM
  HIF-1-α RNA expression: did not down-regulate
  Nanog transcription factor RNA expression: does not act alone to up-regulate
  STAT1 RNA expression: acts alone to beneficially down-regulate
  T-BET RNA expression: acts alone to beneficially down-regulate
[2]
  p62 expression (western blot, normalized by actin): increased p62 expression
[3]; Vitamin D level reduced to 0.01 nM
  Raptor inhibition at Vitamin D 0.01 nM: sub-optimal Raptor inhibition
[3]; culture 7, 0.3 nM Vitamin D, versus 0.1 nM
  Raptor expression at Vitamin D 0.3 nM: higher level of Raptor expression
[4]
  T cell yield at day 13 with Vitamin D 0.01 nM or 1.0 nM: very low yield
[5]
  IFN-γ and TNF-α levels with Vitamin D 0.01 nM relative to 0.1 nM: somewhat higher levels
[6]
  Rictor expression (western blot): effective

From US20230270781A1, “TREATMENT OR PREVENTION OF PRO-INFLAMMATORY DISEASES OR CONDITIONS USING INDUCED REGULATORY T (ITREG) CELLS” (RAPA THERAPEUTICS, LLC, priority 2020, published 2023)
